Each structure is given as a SMILES string.

The values below come from patent US20060019994A1, “I-sulphonlyl piperidine derivatives” (priority 2002, published 2006).

The assay deals with T1, proTNF-α convertase enzyme (TACE) (Homo sapiens, UniProt P78536).
T1 construct: a partially purified, isolated enzyme assay, the enzyme being obtained from the membranes of THP-1; endogenous in cells; host or cells: THP-1 cell membranes, partially purified
Description: Isolated enzyme assay, proTNF-α convertase (TACE), partially purified enzyme from membranes of THP-1, fluorescent peptide substrate. The assay is classed as biochemical. As to conditions: 26° C. for 4 hours, read-out: concentration causing 50% inhibition of TACE. On the procedure: Recombinant human proMMP13 may be expressed and purified as described by Knauper et al. [V. Knauper et al., (1996) The Biochemical Journal 271:1544-1550 (1996)]. […] Activity is determined by measuring the fluorescence at λex 328 nm and λem 393 nm. Percent inhibition is calculated as follows: % Inhibition is equal to the [Fluorescenceplus inhibitor-Fluorescencebackground] divided by the [Fluorescenceminus inhibitor-Fluorescencebackground].
The ability of the compounds to inhibit proTNF-α convertase enzyme (TACE) may be assessed using a partially purified, isolated enzyme assay, the enzyme being obtained from the membranes of THP-1 as described by K. M. Mohler et al., (1994) Nature 370:218-220. The purified enzyme activity and inhibition thereof is determined by incubating the partially purified enzyme in the presence or absence of test compounds using the substrate 4′,5′-Dimethoxy-fluoresceinyl Ser.Pro.Leu.Ala.Gln.Ala.Val.Arg.Ser.Ser.Ser.Arg.Cys(4-(3-succinimid-1-yl)-fluorescein)-NH2 in assay buffer (50 mM Tris HCl, pH 7.4 containing 0.1% (w/v) Triton X-100 and 2 mM CaCl2), at 26° C. for 4 hours. The amount of inhibition is determined as for MMP13 except λex 485 nm and λem 538 nm were used. […]

T1 sequence (P78536 215-824): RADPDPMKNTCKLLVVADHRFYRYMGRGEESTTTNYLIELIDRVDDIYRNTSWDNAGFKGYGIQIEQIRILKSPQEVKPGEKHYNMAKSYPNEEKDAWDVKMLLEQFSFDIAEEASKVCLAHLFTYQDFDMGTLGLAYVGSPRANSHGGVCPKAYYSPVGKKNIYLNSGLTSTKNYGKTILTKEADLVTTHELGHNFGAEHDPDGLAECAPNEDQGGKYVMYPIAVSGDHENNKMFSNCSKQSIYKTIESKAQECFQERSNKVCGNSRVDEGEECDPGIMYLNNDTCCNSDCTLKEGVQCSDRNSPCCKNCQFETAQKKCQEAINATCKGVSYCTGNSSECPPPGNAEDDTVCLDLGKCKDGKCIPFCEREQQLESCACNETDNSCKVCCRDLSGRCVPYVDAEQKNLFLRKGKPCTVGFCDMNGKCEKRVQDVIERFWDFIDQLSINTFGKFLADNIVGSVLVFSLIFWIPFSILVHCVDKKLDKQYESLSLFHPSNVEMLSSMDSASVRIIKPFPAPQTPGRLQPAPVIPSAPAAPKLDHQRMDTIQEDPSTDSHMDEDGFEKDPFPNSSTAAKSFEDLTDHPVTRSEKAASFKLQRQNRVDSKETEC

`Cc1cc(COC2CCN(S(=O)(=O)CCC3NC(=O)NC3=O)CC2)c2ccccc2n1` (stereo not shown) [Example 3, 5-[2-({4-[(2-Methylquinolin-4-yl)methoxy]piperidin-1-yl}sulphonyl)ethyl]imidazolidine-2,4-dione]: the IC50 stood at 630 nM.
